The subject of test [1] is Newcastle disease virus (NDV), influenza virus and tobacco-mosaic virus. To be noted: cited from earlier work.
Test [2] deals with genera Bacillus, Candida, Microbacterium. To be noted: cited from earlier work.
The subject of a further test is Eimeria tenella. The experiment in a line: Inhibitory activity against coccidiosis in chicks orally inoculated with Eimeria tenella oocysts. It counts as in vivo, chicks (domestic fowls) infected with Eimeria tenella. The arrangement: key to Presence of hemaferia: -: Not existing; ±: Something like hemaferia is likely to exist; +: A little hemaferia exists; ++: Distinct hemaferiae exist in places; +++: Distinct hemaferiae exist almost over the whole; ++++: The whole are hemaferiae. How it is done: Inhibitory activity of tunicamine derivative C against coccidiosis was tested in the following manner. Primary chicks newly-hatched out were raised with a standard assorted feed for chicks containing no tunicamine derivative C for the first 7 days and on and after the 8th day with the same feed as above but containing a 100 ppm or 200 ppm concentration of tunicamine derivative C. On the 8th day from the hatch the body weight of the chicks was taken and they were divided into test groups of five chicks per group so as to balance the weight distribution for respective groups. On the 9th day, each chick was orally inoculated with 5.0×10^4 matured oocysts of Eimeria tenella. Assessment was made by observation and determination of the presence of […] on the 4, 5, 6, 7 and 8 from day inoculation; percent of survivals on the 8th day and the extend of symptoms on the 8th day from the inoculation were then evaluated.

Where [3] appears, read: 100 ppm in feed, 8th day from inoculation.
The mark [4] stands for this setting: 200 ppm in feed, 8th day from inoculation.

On to tunicamycin, for which the antiviral activity result in test [1] is “high”. Besides, the antibacterial activity entry in test [2] is on record as “high”.
Turning to `NC1C(O)OC(CC(O)C2OC(n3ccc(=O)[nH]c3=O)C(O)C2O)C(O)C1O` (stereo not shown) [tunicamine derivative C], the “Relative increase in body weight” value in the test on Eimeria tenella (100 ppm in feed) was found to be 96%; with Eimeria tenella (200 ppm in feed) it was 102%. The Presence of hemaferia entry is “-” with Eimeria tenella (100 ppm in feed, 4th day from inoculation); “-” with Eimeria tenella (100 ppm in feed, 5th day from inoculation); “±” in the test on Eimeria tenella (100 ppm in feed, 6th day from inoculation); “±” in the test with Eimeria tenella (100 ppm in feed, 7th day from inoculation); “+” in the test with Eimeria tenella (setting [3]); “-” with Eimeria tenella (200 ppm in feed, 4th day from inoculation). Besides, the Presence of hemaferia entry in the test on Eimeria tenella (200 ppm in feed, 5th day from inoculation) was “-”; in the test on Eimeria tenella (200 ppm in feed, 6th day from inoculation), “-”; with Eimeria tenella (200 ppm in feed, 7th day from inoculation), “-”; in the test with Eimeria tenella (setting [4]) it was “-”. In addition, the Percent of survivals in the test on Eimeria tenella (setting [3]) and in the test on Eimeria tenella (setting [4]) was 100% throughout.
